The record followed here is patent US10654816B2, “Compounds and compositions for treating conditions associated with NLRP activity” (NOVARTIS INFLAMMASOME RESEARCH, INC., priority 2017, dated 2020).

Like-named read-outs stand apart in the source and are kept apart here.

In this experiment the test system is IL-1β production in PMA-differentiated THP-1 cells. The experiment is described as follows: IL-1β production in PMA-differentiated THP-1 cells stimulated with gramicidin (hTHP-1 assay, HTRF readout; Procedures 1-3). Type of experiment: cell-based, human. As to conditions: average, read-out: hTHP-1 IC50 (Average IC50 of compounds in hTHP-1 assay). The method, boiled down: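 PMA-differentiated (20 ng/ml, 16-18 h) THP-1 cells in RPMI with 2% FBS, 50,000 cells/well, preincubated 1 h with compound (final 0.0017-100 μM, 0.37% DMSO), then stimulated with 5 μM gramicidin for 2 h. IL-1β in cell-free supernatant measured by HTRF (620/668 nm).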
(TR-FRET usually uses a lanthanide donor and a delayed reading to cut background.)

The mark [1] stands for this setting: Homo sapiens, THP-1, hTHP-1 assay containing 2% fetal bovine serum, class symbols.
[2] abbreviates: Homo sapiens, THP-1, hTHP-1 assay containing 2% fetal bovine serum, given as bound.

One may read the IC50 as the concentration needed to halve the response being measured. On to `CC(C)c1cc(F)cc(C(C)C)c1NC(=O)N=S(N)(=O)c1cc(Cl)c(Cl)s1` (stereo not shown) [Example 208, 4,5-Dichloro-N′-((4-fluoro-2,6-diisopropylphenyl)carbamoyl)thiophene-2-sulfonimidamide], for which the IC50 under setting [1] was in the range of 5 to 30 µM.

With `Cc1cc(C(C)(C)O)sc1S(N)(=O)=NC(=O)Nc1c(C(C)C)cc(OC(F)F)cc1C(C)C` (single isomer, unassigned) [Example 109, (S)- or (R)-N′-(4-(difluoromethoxy)-2,6-diisopropylphenylcarbamoyl)-5-(2-hydroxypropan-2-yl)-3-methylthiophene-2-sulfonimidamide], the half-maximal inhibitory concentration (IC50) under setting [1] lay in the range of 0.2 to 1 µM.

Regarding `CCc1ccc2cn(C)nc2c1NC(=O)N=S(N)(=O)c1ncc(C(C)(C)O)s1` (single isomer, unassigned) [Example 329, (S) or (R)-N′-((6-ethyl-2-methyl-2H-indazol-7-yl)carbamoyl)-5-(2-hydroxypropan-2-yl)thiazole-2-sulfonimidamide], under setting [2], the IC50 is greater than 30 µM.

Turning to `CC(C)c1cc(F)cc(C(C)C)c1NC(=O)N=S(N)(=O)c1cc(Cl)sc1Cl` (stereo not shown) [Example 214, 2,5-dichloro-N′-((4-fluoro-2,6-diisopropylphenyl)carbamoyl)thio-phene-3-sulfonimidamide], the IC50 under setting [2] was greater than 30 µM.

Consider `COC1CN(Cc2ccc(S(N)(=O)=NC(=O)Nc3c4c(cc5c3CCC5)CCC4)cc2)C1` (stereo not shown) [Example 231], for which the IC50 under setting [1] lay within 1 to 5 µM.

With `CC(C)c1cc(F)cc(C(C)C)c1NC(=O)N=S(N)(=O)c1ccc2c(c1)OCO2` (stereo not shown) [Example 216, N′-((4-fluoro-2,6-diisopropyl-phenyl)carbamoyl)benzo[d][1,3]dioxole-5-sulfonimidamide], the IC50 under setting [2] is greater than 30 µM.

Turning to `CC(C)(O)c1ncc(S(N)(=O)=NC(=O)Nc2c3c(cc4c2CCC4O)CCC3)s1` (single isomer, unassigned) [Example 340, (S, R) or (S, S)-N′-((1-hydroxy-1,2,3,5,6,7-hexahydro-s-indacen-4-yl)carbamoyl)-2-(2-hydroxypropan-2-yl)thiazole-5-sulfonimidamide], the IC50 (hTHP-1 assay containing 2% fetal bovine serum, class symbols) was in the range of 1 to 5 µM.
